Experimental data reported in ChEMBL document CHEMBL1201862, “PubChem BioAssay data set” (2004).
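Cultured in 96-well plates, cells were exposed to test compound for 48 hours across five concentrations. The concentration for 50% growth inhibition is given as GI50.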 Active and inactive are the calls of the source. No stated cut-off is given here; in the data, active = GI50 up to about 1.1 µM and inactive = higher.

How the values were obtained:
Assay in all cases: DTP human tumour cell line panel, 48 h
786-0 = tested on: 786-0
ACHN = tested on: ACHN
BT-549 = tested on: BT-549
HCC 2998 = tested on: HCC 2998
HCT-116 = tested on: HCT-116
HT-29 = tested on: HT-29
Hs-578T = tested on: Hs-578T
IGROV-1 = tested on: IGROV-1
KM12 = tested on: KM12
Malme-3M = tested on: Malme-3M
NCI-H460 = tested on: NCI-H460
OVCAR-5 = tested on: OVCAR-5
SF-539 = tested on: SF-539
SK-MEL-28 = tested on: SK-MEL-28
SR = tested on: SR
TK-10 = tested on: TK-10
HOP-62 = tested on: HOP-62
MDA-MB-231 = tested on: MDA-MB-231
CAKI-1 = tested on: CAKI-1

Measured: GI50

Cc1oc(N)c(S(=O)(=O)c2ccc(Cl)cc2)c1C
inactive: 786-0 73.8 µM | ACHN 37 µM | BT-549 17.6 µM | HCC 2998 23.8 µM | HCT-116 39.4 µM | HT-29 54.3 µM | Hs-578T 50.7 µM | IGROV-1 85.5 µM | KM12 37.1 µM | Malme-3M 29.9 µM | NCI-H460 22.2 µM | OVCAR-5 > 100 µM | SF-539 25.8 µM | SK-MEL-28 > 100 µM | SR 86.3 µM | TK-10 83.6 µM

COc1cc(C2=C(C#N)C(N)OC3=C2COc2ccccc23)cc(OC)c1OC (stereo unspecified)
inactive: ACHN 12.6 µM | BT-549 42.8 µM | HCC 2998 14.4 µM | HCT-116 16.7 µM | HOP-62 6.62 µM | HT-29 77.1 µM | IGROV-1 22.9 µM | KM12 81.7 µM | MDA-MB-231 15.2 µM | Malme-3M 11.9 µM | NCI-H460 19.4 µM | OVCAR-5 > 100 µM | SF-539 20.4 µM | SK-MEL-28 24.8 µM | SR 19.5 µM | TK-10 13.7 µM

CCOC(=O)[C@@]12C[C@](/C=C/OC)(O[Si](C)(C)C)[C@@]13c1cc(OC)c(OC)cc1CCN3C(=O)C2O (stereo partly specified)
inactive: 786-0 > 100 µM | ACHN > 100 µM | CAKI-1 > 100 µM | HCT-116 > 100 µM | HOP-62 > 100 µM | HT-29 > 100 µM | Hs-578T 5.98 µM | IGROV-1 > 100 µM | KM12 > 100 µM | MDA-MB-231 > 100 µM | Malme-3M > 100 µM | NCI-H460 > 100 µM | OVCAR-5 > 100 µM | SF-539 > 100 µM | SK-MEL-28 > 100 µM | SR > 100 µM | TK-10 > 100 µM

C=C(Br)CNCC(=C)Br
inactive: 786-0 > 100 µM | ACHN > 100 µM | CAKI-1 > 100 µM | HCC 2998 > 100 µM | HCT-116 68.1 µM | HOP-62 > 100 µM | HT-29 90.6 µM | Hs-578T > 100 µM | IGROV-1 > 100 µM | KM12 > 100 µM | MDA-MB-231 > 100 µM | Malme-3M 93.1 µM | NCI-H460 > 100 µM | OVCAR-5 > 100 µM | SF-539 > 100 µM | SK-MEL-28 > 100 µM | SR > 100 µM | TK-10 > 100 µM

CCOC(=O)C12OC(OCC)(CC1(OCC)OCC)C1(CC1)C2=O (stereo unspecified)
inactive: 786-0 > 100 µM | ACHN > 100 µM | BT-549 > 100 µM | CAKI-1 > 100 µM | HCC 2998 > 100 µM | HCT-116 > 100 µM | HOP-62 > 100 µM | HT-29 > 100 µM | IGROV-1 > 100 µM | KM12 > 100 µM | MDA-MB-231 > 100 µM | Malme-3M > 100 µM | NCI-H460 > 100 µM | OVCAR-5 > 100 µM | SF-539 > 100 µM | SK-MEL-28 > 100 µM | TK-10 > 100 µM

O=C(CCO)OCCCCCC/C=C\CCCCCC/C=C\CCCCCCCCOC(=O)CCO
inactive: 786-0 18.5 µM | ACHN 23.9 µM | BT-549 19 µM | CAKI-1 21.7 µM | HCC 2998 16.5 µM | HCT-116 16.3 µM | HOP-62 17.1 µM | HT-29 17.7 µM | IGROV-1 17.2 µM | KM12 19.1 µM | MDA-MB-231 18.5 µM | Malme-3M 20.5 µM | NCI-H460 17.3 µM | OVCAR-5 18.3 µM | SF-539 > 100 µM | SK-MEL-28 19.5 µM | TK-10 17.7 µM

O=C(O)C(CS)NCc1c2ccccc2nc2ccccc12 (stereo unspecified)
inactive: 786-0 55.2 µM | ACHN 42.3 µM | CAKI-1 34.4 µM | HCC 2998 40.6 µM | HCT-116 16.7 µM | HT-29 35.6 µM | IGROV-1 27 µM | KM12 26.9 µM | Malme-3M 38.2 µM | NCI-H460 42.5 µM | OVCAR-5 > 100 µM | SF-539 33.9 µM | SK-MEL-28 72.6 µM | SR 19.5 µM | TK-10 78.2 µM

COc1ccc2ccccc2c1C1=NC(C)(C)CO1
inactive: 786-0 > 100 µM | ACHN > 100 µM | CAKI-1 > 100 µM | HCT-116 > 100 µM | HOP-62 > 100 µM | HT-29 > 100 µM | IGROV-1 > 100 µM | KM12 > 100 µM | Malme-3M > 100 µM | NCI-H460 > 100 µM | SF-539 > 100 µM | SK-MEL-28 > 100 µM | SR > 100 µM | TK-10 > 100 µM

CO[C@]12CC(=O)C3(C(C[C@H]4CC5CC=C6C[C@@H](OC(C)=O)CC[C@]6(OC(C)=O)C5C[C@@]43C)C1)C1C[C@H]3[C@@H]4CC=C5C[C@@H](OC(C)=O)CC[C@]5(OC(C)=O)[C@H]4CC[C@]3(C)C12 (stereo partly specified)
inactive: 786-0 19.8 µM | ACHN 22.9 µM | CAKI-1 19.2 µM | HCC 2998 17.8 µM | HCT-116 6.55 µM | HOP-62 18.8 µM | HT-29 16.1 µM | Hs-578T 32.2 µM | IGROV-1 20.1 µM | KM12 11.4 µM | MDA-MB-231 14.8 µM | Malme-3M 18.5 µM | NCI-H460 16.3 µM | OVCAR-5 21.7 µM | SF-539 19.6 µM | SK-MEL-28 30 µM | SR 5.66 µM | TK-10 43.2 µM

O=C1c2ccccc2C(=O)c2[nH]c(Cc3ccccc3F)nc21
inactive: 786-0 38.5 µM | ACHN 53.5 µM | CAKI-1 86.7 µM | HCC 2998 > 100 µM | HCT-116 41.4 µM | HOP-62 86.7 µM | HT-29 32.1 µM | KM12 38.9 µM | Malme-3M 40.7 µM | NCI-H460 33.9 µM | SF-539 31.2 µM | SK-MEL-28 > 100 µM | SR 68.2 µM | TK-10 29.3 µM

COc1cccc2c1OCC1Cc3ccccc3OC21 (stereo unspecified)
inactive: 786-0 35.6 µM | BT-549 19.1 µM | CAKI-1 61.4 µM | HCC 2998 51.6 µM | HCT-116 33.6 µM | HOP-62 36.2 µM | HT-29 57.4 µM | IGROV-1 > 100 µM | KM12 42.8 µM | MDA-MB-231 31 µM | Malme-3M 42.4 µM | OVCAR-5 > 100 µM | SF-539 41.6 µM | SR 59.3 µM | TK-10 21.1 µM

CSC(SC)=C(C(=O)c1ccc(Cl)cc1)n1c(=O)sc2cc(Br)ccc21
inactive: 786-0 > 100 µM | ACHN > 100 µM | CAKI-1 23.1 µM | HCC 2998 > 100 µM | HCT-116 51.3 µM | HOP-62 > 100 µM | HT-29 98.6 µM | Hs-578T > 100 µM | IGROV-1 > 100 µM | KM12 > 100 µM | MDA-MB-231 > 100 µM | Malme-3M > 100 µM | NCI-H460 > 100 µM | OVCAR-5 > 100 µM | SF-539 > 100 µM | SK-MEL-28 > 100 µM | TK-10 > 100 µM

C=CCN(CCN(CC=C)S(=O)(=O)c1ccc(C)cc1)S(=O)(=O)c1ccc(C)cc1
inactive: ACHN > 100 µM | HCC 2998 > 100 µM | HCT-116 > 100 µM | HT-29 > 100 µM | Hs-578T > 100 µM | KM12 > 100 µM | MDA-MB-231 > 100 µM | NCI-H460 > 100 µM | SK-MEL-28 > 100 µM | SR > 100 µM | TK-10 > 100 µM

O=C1C=C(NCCc2cc(Br)c(O)c(Br)c2)C(=O)c2[nH]cnc21
inactive: 786-0 > 100 µM | ACHN 42.9 µM | CAKI-1 39.9 µM | HCC 2998 11.5 µM | HCT-116 7.35 µM | HOP-62 38.6 µM | HT-29 26.9 µM | Hs-578T 7.35 µM | IGROV-1 17.6 µM | KM12 48.5 µM | MDA-MB-231 29.4 µM | Malme-3M 15 µM | NCI-H460 11.1 µM | OVCAR-5 29.9 µM | SF-539 22.4 µM | SK-MEL-28 39.7 µM | SR 32.4 µM | TK-10 89.7 µM

CCOC(=O)Cc1ccc(Nc2nc3cc(C(F)(F)F)ccc3nc2C(=O)OCC)cc1
inactive: 786-0 23.5 µM | ACHN 33 µM | BT-549 77.1 µM | CAKI-1 30.1 µM | HCT-116 81.8 µM | HOP-62 35 µM | HT-29 > 100 µM | Hs-578T 30 µM | IGROV-1 > 100 µM | KM12 > 100 µM | Malme-3M > 100 µM | NCI-H460 > 100 µM | OVCAR-5 > 100 µM | SF-539 14.7 µM | SK-MEL-28 > 100 µM | SR > 100 µM | TK-10 49.3 µM

COc1ccc(OC)c(NC2=NCCO2)c1
inactive: 786-0 > 100 µM | ACHN > 100 µM | CAKI-1 15 µM | HCC 2998 > 100 µM | HCT-116 > 100 µM | HOP-62 > 100 µM | HT-29 62.2 µM | Hs-578T > 100 µM | IGROV-1 > 100 µM | KM12 > 100 µM | MDA-MB-231 > 100 µM | Malme-3M > 100 µM | NCI-H460 > 100 µM | OVCAR-5 > 100 µM | SF-539 > 100 µM | SK-MEL-28 > 100 µM | SR 66.4 µM | TK-10 > 100 µM

NC(=O)ON=C1CCN(Cc2ccccc2)CC1
inactive: 786-0 > 100 µM | ACHN > 100 µM | CAKI-1 > 100 µM | HCC 2998 > 100 µM | HCT-116 > 100 µM | HOP-62 > 100 µM | HT-29 > 100 µM | Hs-578T > 100 µM | IGROV-1 > 100 µM | KM12 > 100 µM | MDA-MB-231 > 100 µM | Malme-3M > 100 µM | NCI-H460 > 100 µM | OVCAR-5 > 100 µM | SF-539 > 100 µM | SK-MEL-28 > 100 µM | SR > 100 µM | TK-10 29.9 µM
